1 compound from patent US10813920B2, “Drug for treating corneal endothelium by promoting cell proliferation or inhibiting cell damage” (THE DOSHISHA, priority 2013, dated 2020) can be followed below.

SMILES strings stand for the structures.

This test relates to human corneal endothelial cells. In words: IL-6 production by RT-PCR and ELISA. It is filed as cell-based. The following applies: 10 μM, cultured for 20 days. On the procedure:
*PCR: PCR was carried out on each laminin chain and integrin chain by RT-PCR (reverse transcription polymerase chain reaction). A primer was purchased from the oligonucleotide synthesis company INVITROGEN and then desalinized for use. RNEasy Mini Kit (QIAGEN, catalog number: 74106) was used for extracting the entire RNA from cells. The Descemet's membrane including corneal endothelial cells were peeled off from a cornea for research purchased from the Seattle Eye Bank and the corneal endothelial cells were mechanically peeled off with the basal membrane for use in RNA extraction from the corneal endothelial cells. […]
Electrophoresis is applied to an amplified DNA fragment with 1.5% agarose gel (Nacalai Tesque, catalog number: 01149-76) and the fragment was detected by staining with ethidium bromide (Nacalai Tesque, catalog number: 14603-51).
*The amount of IL-6 expression of human corneal endothelial cells was quantified by RT-PCR by the following method. […] The reaction was stopped with 1M sulfuric acid to measure the absorbance at 450 nm with a plate reader. […] The amount of IL-6 protein in a culture supernatant collected after 7 days was quantified in accordance with the manual of DuoSetELISA human IL-6 (R & D Cat # DY206). […]

For the compound `C[S+]([O-])c1ccc(-c2nc(-c3ccncc3)c(-c3ccc(F)cc3)[nH]2)cc1` (centres unmarked) [SB203580, 4-(4-fluorophenyl)-2-(4-methylsulfinylphenyl)-5-(4-pyridyl)-1H-imidazole], the “IL-6 production (PCR)” value (RT-PCR) was “decreases relative to the control”. In addition, the “IL-6 production (ELISA)” value (supernatant collected after 7 days) is recorded as “decreases relative to the control”.
